# Target: T1, GHSR (Homo sapiens, UniProt Q92847)
# T1 construct: purchased Promega (in-house HiBiT-GPCR construct library, NanoBRET)
# Test: NanoBRET screen HiBiT-GHSR in HEK293
# Format: binding
# Procedure: Each tracer candidate was screened across the entire library of HiBiT-GPCR constructs using NanoBRET as the detection modality. As depicted in Figure 4A, the specificity of interactions was evaluated through decrease in BRET due to competitive displacement of a bound tracer by excess parental compound. Each tracer was analyzed for binding to each HiBiT-GPCR fusion in the absence and in the presence of competing parental compound. Briefly, HEK293 cells were transfected with HiBiT-GPCR constructs diluted into promoterless DNA to reduce expression and maximize translocation to the cell surface. Each tracer candidate was then screened at concentrations of 1 μM and 0.1 μM across cells expressing these fusions. Cells were treated for 1.5 h with tracer either alone or in the presence of 20 μM competing parental compound (i.e., control). BRET was measured upon addition of purified LgBiT and subsequent complementation with HiBiT genetically fused to a GPCR. The specificity of interactions was assessed through a decrease in BRET signal due to competitive displacement of the bound tracer. To further gauge the robustness of these interactions, the fold response over the control (i.e., BRETtracer/BRETcontrol) was calculated. We chose a 1.5-fold response, which translates to ≥7-fold signal over noise as the minimal threshold required to score an interaction as positive. […]. Below we highlight the screening results obtained for our exemplary fluorescent tracers based on Clozapine, Amitriptyline and AZD1283.
# HiBiT-GPCR DNA constructs were diluted in 10 mM Tris pH 8 to a final concentration of 0.01 μg/μL, arrayed in 96-well plates and stored at −20 °C. For transfection, HEK293 cells were suspended in Opti-MEM (without phenol red) supplemented with 2% fetal bovine serum (Seradigm) and 100 units/mL penicillin–streptomycin (Gibco) at a final concentration of 220,000 cells/mL and dispensed into white 96-well plates at 90 μL/well. Subsequent transfections and screens were carried using an Agilent Bravo Automated Liquid Handling Platform. First, the 96-well HiBiT DNA arrays were diluted 25-fold in Opti-MEM (without serum or phenol red) to a final concentration of 0.0004 μg/μL and 20 μL of the diluted DNAs were transferred into new 96-well plates. Next, promoterless carrier DNA (1 μg/μL) was diluted 25-fold (0.04 μg/μL) and then dispensed into the diluted arrays at 20 μL/well. Following brief mixing, Viafect transfection reagent (Promega) diluted 16-fold into Opti-MEM was dispensed into the plates at 40 μL/well. After mixing by pipetting, plates were incubated for 10 min on the pipetting station deck. The DNA-transfection reagent complexes were then added to plates containing cells. To facilitate the screen, 10 μL of DNA-transfection reagent complexes were added in duplicates to the top 4 and bottom 4 rows, resulting in two identical 48-well arrays per plate. Plates with transfected cells were incubated for 18–20 h at 37 °C/5% CO2. A screen of each tracer across the entire library using two different concentrations requires duplicate plates of transfected cells. Depending on the number of tracers being screened, transfections can be scaled up using the same ratios. The next day, for each tracer, four 20× screening solutions in tracer dilution buffer (Promega) were prepared: two duplicates at final concentration of 20 μM and two duplicates at a final concentration of 2 μM. A competing unmodified compound was added to one of each duplicate at a final concentration of 400 μM. The four resulting solutions were diluted 4-fold in Opti-MEM without serum or phenol red to generate 5× solutions (5 µM and 0.5 µM tracer +/− 100 μM competing compound). To screen the library, a BioTek MultiFlo FX liquid dispenser was used to dispense 22.5 µL of tracer solution to the top 4 rows and 22.5 µL tracer + competing compound solution to the 4 bottom rows. Plates were briefly mixed on an orbital shaker and incubated for 1.5 h at room temperature. […]
# T1 sequence (Q92847 whole entry): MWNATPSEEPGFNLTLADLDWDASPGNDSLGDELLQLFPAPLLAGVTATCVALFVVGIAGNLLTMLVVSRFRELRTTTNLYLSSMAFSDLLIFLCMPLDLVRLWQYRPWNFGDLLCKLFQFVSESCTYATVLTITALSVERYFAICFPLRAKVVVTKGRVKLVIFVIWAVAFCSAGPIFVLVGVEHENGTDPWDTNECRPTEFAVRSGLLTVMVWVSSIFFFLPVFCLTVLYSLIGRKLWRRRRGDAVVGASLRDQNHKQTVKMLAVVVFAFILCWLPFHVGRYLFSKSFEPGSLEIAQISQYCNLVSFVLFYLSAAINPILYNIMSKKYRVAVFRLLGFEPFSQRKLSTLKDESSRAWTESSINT
Structure (SMILES),"NanoBRET Fold Response (GHSR, tracer 0.1μM)","NanoBRET Fold Response (GHSR, tracer 1μM)",also measured
O=C(CCc1ccc2n1[B-](F)(F)[N+]1=C(c3ccc[nH]3)C=CC1=C2)NCc1ccc(C(=O)NCCOCCC(=O)N[C@@H]2CC[C@@]3(O)[C@H]4Cc5ccc(O)c6c5[C@@]3(CCN4CC3CC3)[C@H]2O6)cc1 [Naltrexone-3-NB590],1.01,0.90,
CCCn1c(=O)c2[nH]c(-c3ccc(OCC(=O)NCCNC(=O)CCOCCNC(=O)c4ccc(CNC(=O)CCc5ccc6n5[B-](F)(F)[N+]5=C(c7ccc[nH]7)C=CC5=C6)cc4)cc3)nc2n(CCC)c1=O [XAC-3-NB590],1.07,1.02,
CC(C)N(CC[C@H](c1ccccc1)c1cc(CCNC(=O)c2ccc(CNC(=O)CCc3ccc4n3[B-](F)(F)[N+]3=C(c5ccc[nH]5)C=CC3=C4)cc2)ccc1O)C(C)C [Tolterodine-BZ-NB590],1.00,1.06,
COc1ccc2[nH]c(-c3ccc(CNC(=O)CCOCCOCCOCCOCCNC(=O)CCc4ccc5n4[B-](F)(F)[N+]4=C(c6ccc[nH]6)C=CC4=C5)cc3)c(CCNC(C)=O)c2n1 [AzomelatoninICO9-2-NB590],,,NanoBRET Fold Response (0.1μM tracer): 0.89; NanoBRET Fold Response (1μM tracer): 0.90
CN1CCN(C2=Nc3cc(Cl)ccc3N(CC(=O)NCCOCCOCCOCCOCCNC(=O)CCc3ccc4n3[B-](F)(F)[N+]3=C(c5ccc[nH]5)C=CC3=C4)c3ccccc32)CC1 [Clozapine-c-2-NB590],,,"NanoBRET Fold Response (GHSR, 0.1μM tracer): 1.00; NanoBRET Fold Response (GHSR, 1μM tracer): 1.04"
COc1ccccc1N1CCN(CCCCN2C(=O)c3ccc(CNC(=O)CCOCCNC(=O)c4ccc(CNC(=O)CCc5ccc6n5[B-](F)(F)[N+]5=C(c7ccc[nH]7)C=CC5=C6)cc4)cc3C2=O)CC1 [NAN-190-3-NB590],0.86,1.06,
Cc1nc2n(c(=O)c1CCN1CCC(c3noc4cc(F)ccc34)CC1)CCCC2OC(=O)NCCOCCOCCOCCOCCNC(=O)CCc1ccc2n1[B-](F)(F)[N+]1=C(c3ccc[nH]3)C=CC1=C2 (stereo not shown) [Risperidone-2-NB590],1.06,1.02,
O=C(CCOCCOCCOCCOCCNC(=O)CCc1ccc2n1[B-](F)(F)[N+]1=C(c3ccc[nH]3)C=CC1=C2)NCCCN1CCN(C2=Nc3ccccc3Oc3ccc(Cl)cc32)CC1 [Loxapine-a-2-NB590],0.97,1.09,
COc1ccccc1N1CCN(CCCCN2C(=O)c3ccc(CNC(=O)CCOCCOCCOCCOCCNC(=O)CCc4ccc5n4[B-](F)(F)[N+]4=C(c6ccc[nH]6)C=CC4=C5)cc3C2=O)CC1 [NAN-190-2-NB590],1.01,1.02,
CC(C)N(CC[C@H](c1ccccc1)c1cc(CCNC(=O)CCOCCOCCOCCOCCNC(=O)CCc2ccc3n2[B-](F)(F)[N+]2=C(c4ccc[nH]4)C=CC2=C3)ccc1O)C(C)C [Tolterodine-2-NB590],0.95,1.11,
N#CN=C(NCCCOc1cccc(CN2CCCCC2)c1)NCCNC(=O)CCOCCOCCOCCOCCNC(=O)CCc1ccc2n1[B-](F)(F)[N+]1=C(c3ccc[nH]3)C=CC1=C2 [Aminopotentidine-2-NB590],0.98,1.07,
CCOC(=O)c1cc(C#N)c(N2CCC(C(=O)NS(=O)(=O)Cc3ccccc3/C=C/C(=O)NCCNC(=O)CCc3ccc4n3[B-](F)(F)[N+]3=C(c5ccc[nH]5)C=CC3=C4)CC2)nc1C [AZD1283-1-NB590],,,"NanoBRET Fold Response (GHSR, 0.1μM): 1.01; NanoBRET Fold Response (GHSR, 1μM): 1.04"
CN(C)CCC=C1c2ccccc2CCc2ccc(C(=O)NCCNC(=O)CCOCCOCCOCCOCCNC(=O)CCc3ccc4n3[B-](F)(F)[N+]3=C(c5ccc[nH]5)C=CC3=C4)cc21 [Amitriptyline-b-2-NB590],,,"NanoBRET Fold Response (tracer at 0.1μM, listed as amitriptyline-b-2-NB590): 1.07; NanoBRET Fold Response (tracer at 1μM, listed as amitriptyline-b-2-NB590): 0.97"
CN(C)CCC=C1c2ccccc2CCc2ccc(C(=O)NCCNC(=O)CCOCCOCCOCCOCCNC(=O)CCc3ccc4n3[B-](F)(F)[N+]3=C(c5ccc[nH]5)C=CC3=C4)cc21 [Amitriptyline-a-2-NB590],,,NanoBRET Fold Response (tracer at 0.1μM): 0.97; NanoBRET Fold Response (tracer at 1μM): 1.04
O=C(CCc1ccc2n1[B-](F)(F)[N+]1=C(c3ccc[nH]3)C=CC1=C2)NCCOCCOCCNC(=O)OCCOCCN1CCN(C2=Nc3ccccc3Sc3ccccc32)CC1 [Quetiapine-a-2-NB590],0.97,0.77,
Cc1cc2c(s1)Nc1ccccc1N=C2N1CCN(CCCNC(=O)CCOCCOCCOCCOCCNC(=O)CCc2ccc3n2[B-](F)(F)[N+]2=C(c4ccc[nH]4)C=CC2=C3)CC1 [Olanzapine-a-2-NB590],0.96,0.98,
CN1CCN(C2=Nc3cc(Cl)ccc3Nc3ccc(CNC(=O)CCOCCOCCOCCOCCNC(=O)CCc4ccc5n4[B-](F)(F)[N+]4=C(c6ccc[nH]6)C=CC4=C5)cc32)CC1 [Clozapine-b-2-NB590],,,"NanoBRET Fold Response (GHSR, 0.1μM tracer): 1.01; NanoBRET Fold Response (GHSR, 1μM tracer): 1.03"
COc1ccc2c(n1)c(CCNC(C)=O)cn2CCNC(=O)CCc1ccc2n1[B-](F)(F)[N+]1=C(c3ccc[nH]3)C=CC1=C2 [Azamelatonin-1-NB590],,,NanoBRET Fold Response (0.1μM tracer): 0.93; NanoBRET Fold Response (1μM tracer): 1.03
O=C(CCc1ccc2n1[B-](F)(F)[N+]1=C(c3ccc[nH]3)C=CC1=C2)NCc1ccc(C(=O)NCCOCCOCCNCC(O)COc2cccc3ccccc23)cc1 (stereo not shown) [Propranolol-3-NB590],,,"NanoBRET Fold Response (GHSR, 0.1μM): 0.98; NanoBRET Fold Response (GHSR, 1μM): 0.97"
O=C(CCOCCOCCOCCOCCNC(=O)CCc1ccc2n1[B-](F)(F)[N+]1=C(c3ccc[nH]3)C=CC1=C2)NCCCN1CCN(C2=Nc3cc(Cl)ccc3Nc3ccccc32)CC1 [Clozapine-a-2-NB590],,,"NanoBRET Fold Response (GHSR, 0.1μM tracer): 0.95; NanoBRET Fold Response (GHSR, 1μM tracer): 1.06"

# Reference: paper PMC8151276, “An Integrated Approach toward NanoBRET Tracers for Analysis of GPCR Ligand Engagement” (Molecules, 2021)
